Measurements reported in ChEMBL document CHEMBL1201862, “PubChem BioAssay data set” (2004).
The source made the active and inactive calls.

What was measured:
Cytochrome P450 3A4 = Cytochrome P450 3A4 (Homo sapiens, UniProt P08684);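 also: CYP3A4 tested as one member of a cytochrome P450 panel screen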
INS1 = experiment: beta cell apoptosis inhibitors, cytokine rescue, dose response, luminescence, retest (AID 449756); type: functional, cell-based; conditions: Rattus norvegicus;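 also: cell death triggered by IL-1 beta plus TNF-alpha plus IFN-gamma mixture; protective hits raise ATP signal compared with cytokine alone wells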
Cytochrome P450 2D6 = Cytochrome P450 2D6 (Homo sapiens, UniProt P10635);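 also: CYP2D6 member of a cytochrome P450 panel assay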
Cytochrome P450 2C19 = Cytochrome P450 2C19 (Homo sapiens, UniProt P33261); experiment: Cytochrome panel assay with activity outcomes. Panel member name: p450-cyp2c19 Compounds with AC50 equal or less than 10 uM are considered active; type: functional
[1] = inhibitors of intracellular T. cruzi replication, confirmation, NIH3T3 host cells, beta-gal luminescence (AID 2044); type: functional, cell-based;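 also: intracellular parasites grown in NIH/3T3 mouse fibroblasts as host cells; luminescent beta-galactosidase reporter signal from transgenic T. cruzi replicating inside host cells; inhibitors lower the luminescence signal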
[2] = cytotoxicity toward NIH3T3 fibroblasts, dose response, counter-screen, cell-based, ATP luminescence, mouse fibroblasts (AID 2010); type: functional;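 also: cells exposed to compound for about 90 hours before reading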
[3] = target: T1, Rac GTPase-activating protein 1 (Homo sapiens, UniProt Q9H0H5); experiment: MgcRacGAP GTPase-activating activity inhibitors, confirmation, biochemical, ADP Hunter fluorescence, primary and confirmatory (AID 624330); type: functional
T1 sequence (Q9H0H5 whole entry): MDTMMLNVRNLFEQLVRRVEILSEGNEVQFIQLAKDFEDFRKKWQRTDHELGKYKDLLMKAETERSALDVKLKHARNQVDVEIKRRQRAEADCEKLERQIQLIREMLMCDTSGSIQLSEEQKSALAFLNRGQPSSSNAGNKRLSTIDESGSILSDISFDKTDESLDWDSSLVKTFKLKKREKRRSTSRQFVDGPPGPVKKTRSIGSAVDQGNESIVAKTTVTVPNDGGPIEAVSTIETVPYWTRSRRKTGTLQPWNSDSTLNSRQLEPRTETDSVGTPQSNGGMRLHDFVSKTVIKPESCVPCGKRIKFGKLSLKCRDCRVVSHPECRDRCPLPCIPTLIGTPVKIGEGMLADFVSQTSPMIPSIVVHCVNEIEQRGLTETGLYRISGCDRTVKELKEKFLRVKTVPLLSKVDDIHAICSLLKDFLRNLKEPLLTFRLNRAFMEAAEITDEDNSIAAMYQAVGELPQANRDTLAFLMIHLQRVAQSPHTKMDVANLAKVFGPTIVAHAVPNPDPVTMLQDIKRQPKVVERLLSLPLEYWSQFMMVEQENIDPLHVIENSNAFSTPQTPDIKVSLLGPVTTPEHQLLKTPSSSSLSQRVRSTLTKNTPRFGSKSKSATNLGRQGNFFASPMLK

[4] = target: T2, Corticotropin-releasing factor receptor 2/Corticotropin-releasing factor-binding protein (Homo sapiens, UniProt P24387+Q13324); experiment: activators of CRF receptor 2 with binding protein – uHTS hits, confirmation (AID 602473); type: functional; conditions: read-out: EC50_Mean
T2 sequence (Q13324 whole entry): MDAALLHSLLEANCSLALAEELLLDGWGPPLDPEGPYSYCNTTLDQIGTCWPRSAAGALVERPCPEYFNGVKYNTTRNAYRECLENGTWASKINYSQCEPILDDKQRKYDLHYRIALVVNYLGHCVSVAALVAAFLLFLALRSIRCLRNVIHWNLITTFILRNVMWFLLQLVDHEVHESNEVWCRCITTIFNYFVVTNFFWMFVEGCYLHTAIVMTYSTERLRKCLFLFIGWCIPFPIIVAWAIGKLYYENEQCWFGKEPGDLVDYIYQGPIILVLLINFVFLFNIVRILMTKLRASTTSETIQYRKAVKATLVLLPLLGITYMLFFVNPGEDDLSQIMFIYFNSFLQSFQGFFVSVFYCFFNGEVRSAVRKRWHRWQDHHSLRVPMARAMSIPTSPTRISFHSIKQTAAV
T2 sequence (P24387 whole entry): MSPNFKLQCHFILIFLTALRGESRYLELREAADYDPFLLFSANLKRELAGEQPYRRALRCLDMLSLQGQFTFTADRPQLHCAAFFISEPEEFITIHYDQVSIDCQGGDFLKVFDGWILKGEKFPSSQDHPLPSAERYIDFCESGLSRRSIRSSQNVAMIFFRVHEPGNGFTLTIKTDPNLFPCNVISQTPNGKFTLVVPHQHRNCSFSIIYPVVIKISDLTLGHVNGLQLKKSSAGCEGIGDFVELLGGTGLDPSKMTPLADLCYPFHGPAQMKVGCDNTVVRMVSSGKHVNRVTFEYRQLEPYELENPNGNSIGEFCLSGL

Cytochrome P450 2C19, sequence (P33261 whole entry): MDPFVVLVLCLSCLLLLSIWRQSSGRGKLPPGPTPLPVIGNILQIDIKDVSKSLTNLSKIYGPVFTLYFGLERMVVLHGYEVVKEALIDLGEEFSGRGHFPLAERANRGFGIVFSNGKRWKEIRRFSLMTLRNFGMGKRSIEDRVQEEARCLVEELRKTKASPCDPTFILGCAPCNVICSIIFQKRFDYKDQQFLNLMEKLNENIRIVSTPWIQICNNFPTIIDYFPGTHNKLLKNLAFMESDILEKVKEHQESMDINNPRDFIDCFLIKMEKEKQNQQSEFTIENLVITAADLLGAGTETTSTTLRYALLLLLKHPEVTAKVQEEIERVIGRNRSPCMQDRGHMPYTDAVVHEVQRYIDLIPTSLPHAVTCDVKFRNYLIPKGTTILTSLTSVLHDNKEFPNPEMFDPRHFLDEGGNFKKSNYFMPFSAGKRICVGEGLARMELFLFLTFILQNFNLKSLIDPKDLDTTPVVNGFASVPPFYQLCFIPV
Cytochrome P450 2D6, sequence (P10635 whole entry): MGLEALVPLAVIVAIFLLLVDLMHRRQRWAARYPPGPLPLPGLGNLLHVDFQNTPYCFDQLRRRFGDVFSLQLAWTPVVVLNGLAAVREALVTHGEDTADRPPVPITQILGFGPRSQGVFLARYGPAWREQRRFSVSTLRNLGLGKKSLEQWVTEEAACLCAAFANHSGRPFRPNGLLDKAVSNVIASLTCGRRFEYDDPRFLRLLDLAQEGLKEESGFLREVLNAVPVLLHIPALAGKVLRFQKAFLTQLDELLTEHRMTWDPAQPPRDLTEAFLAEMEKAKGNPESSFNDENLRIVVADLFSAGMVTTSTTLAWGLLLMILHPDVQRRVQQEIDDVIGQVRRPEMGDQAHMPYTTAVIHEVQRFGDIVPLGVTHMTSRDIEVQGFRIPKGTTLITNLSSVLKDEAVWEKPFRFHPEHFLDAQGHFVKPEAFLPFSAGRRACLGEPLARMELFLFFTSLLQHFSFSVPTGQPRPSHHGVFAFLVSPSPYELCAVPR
Cytochrome P450 3A4, sequence (P08684 whole entry): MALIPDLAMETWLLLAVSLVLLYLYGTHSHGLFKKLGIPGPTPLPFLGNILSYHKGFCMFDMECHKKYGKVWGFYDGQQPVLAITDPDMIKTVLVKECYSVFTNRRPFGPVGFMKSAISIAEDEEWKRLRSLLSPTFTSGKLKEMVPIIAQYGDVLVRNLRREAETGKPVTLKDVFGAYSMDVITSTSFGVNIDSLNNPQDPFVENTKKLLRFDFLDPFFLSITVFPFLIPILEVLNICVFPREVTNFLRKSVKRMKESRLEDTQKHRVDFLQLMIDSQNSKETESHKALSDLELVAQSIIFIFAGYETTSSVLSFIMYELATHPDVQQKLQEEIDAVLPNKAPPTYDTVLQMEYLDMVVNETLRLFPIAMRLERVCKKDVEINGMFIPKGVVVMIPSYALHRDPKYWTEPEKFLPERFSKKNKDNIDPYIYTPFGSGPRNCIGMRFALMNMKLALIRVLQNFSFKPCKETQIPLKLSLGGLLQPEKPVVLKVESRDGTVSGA

In the case of `O=S(=O)(NCc1cc(-c2ccc(Cl)cc2)no1)c1ccc(Cl)cc1`, the AC50 (Cytochrome P450 3A4) is reported as 25.1 µM (inconclusive).

For `CC1(C(=O)OCC(=O)N2c3ccccc3Sc3ccccc32)CC1(Cl)Cl` (configuration not stated), the AC50 (INS1) was 37.4 µM (active).

In the case of `COCCNc1ncnc2ccc(-c3ccc(N(C)C)cc3)cc12`, the AC50 (Cytochrome P450 2D6) is reported as 20 µM (inconclusive) and the AC50 (Cytochrome P450 2C19; read-out: AC50) is reported as 25.1 µM (inconclusive).

With `CCNc1ncc2nc(-c3cc(F)cc(F)c3)c(=O)n(-c3ccccc3)c2n1` the AC50 (Cytochrome P450 3A4) was 10 µM (inconclusive).

In the case of `O=C1N(Cc2cccc(Cl)c2)C[C@@H]2C[C@@H](c3c[nH]c4ccccc34)N3CCC[C@@]123`, the EC50 [1] is reported as 2 µM (active) and the EC50 [2] is reported as > 60 µM (inconclusive).

For `CCc1nnc(NC(=O)C2Cc3ccccc3CN2S(=O)(=O)c2ccc(C)cc2)s1` (configuration not stated), the AC50 (Cytochrome P450 2D6) was 15.8 µM (inconclusive).

In the case of `C=CCNC(=O)c1csc(-c2ccccc2)n1`, the AC50 (Cytochrome P450 3A4) is reported as 28.2 µM (inconclusive).

With `COc1ccc(C(=O)CCC(=O)Nc2cc(Cl)c(O)c(Cl)c2)cc1` the IC50 [3] was 118 µM (active).

In the case of `CCCCOC(=O)Nc1nnc(C(C)C)s1`, the EC50 [1] is reported as 1.26 µM (active) and the EC50 [2] is reported as 12.9 µM (active).

In the case of `c1csc(CNc2cc(-c3ccoc3)ncn2)c1`, the AC50 (Cytochrome P450 3A4) is reported as 25.1 µM (inconclusive).

For `Clc1ccc(-c2nc3ncccn3c2Nc2ccc3c(c2)OCCO3)cc1`, the AC50 (Cytochrome P450 2D6) was 31.6 µM (inconclusive) and the AC50 (Cytochrome P450 2C19; read-out: AC50) was 7.08 µM (inconclusive).

For `Clc1ccc(CNc2ccc(N3CCN(Cc4ccccc4)CC3)cc2)cc1`, the IC50 [3] was 41.4 µM (active).

In the case of `CCc1cc2c(nc1CC)CCN(CC/C(C)=N/O[C@@H](C)CN1CCCc3nc(C)c(C)cc31)C2`, the AC50 (Cytochrome P450 3A4) is reported as 3.16 µM (inconclusive).

For `Cc1cccc(C(=O)NCCCN(C)CCCNC(=O)c2cccc(C)c2)c1`, the EC50 [1] was 0.894 µM (active) and the EC50 [2] was > 60 µM (not active).

In the case of `C#CCCCO/N=C1/[C@H]2O[C@@H]2[C@@H](O)[C@H]2[C@H]1CCn1c(=O)n([C@@H](CC)c3ccccc3)c(=O)n12`, the AC50 (Cytochrome P450 3A4) is reported as 3.98 µM (inconclusive).

In the case of `Clc1ccc(C2=CCC[C@H]3CC[C@@H]2N3)cn1`, the AC50 (Cytochrome P450 3A4) is reported as 39.8 µM (inconclusive).

For `CCNc1ncc2nc(CCc3ccccc3)c(=O)n(C[C@H]3CCCO3)c2n1`, the AC50 (Cytochrome P450 2C19; read-out: AC50) was 39.8 µM (inconclusive).

For `CCOC(=O)C1=C(N)Oc2ccc3ccccc3c2C1c1cccnc1` (configuration not stated), the EC50 [1] was 0.243 µM (active) and the EC50 [2] was > 60 µM (not active).

For `COc1ccc(-c2c[n+](-c3ccc(OC)cc3)c3n2-c2ccccc2CC3)cc1`, the AC50 (INS1) was 0.786 µM (active).

With `O=C(Oc1ccc2c(c1)OCO2)c1ccncc1` the IC50 [3] was 50.5 µM (active).

In the case of `Cc1c(Cl)cccc1NC(=O)CCCn1cnc([N+](=O)[O-])n1`, the EC50 [1] is reported as 0.131 µM (active) and the EC50 [2] is reported as > 60 µM (not active).

For `COc1ccccc1C1NC=C([N+](=O)[O-])C=C1[N+](=O)[O-]` (configuration not stated), the EC50 [1] was 1.73 µM (active) and the EC50 [2] was > 60 µM (not active).

With `COc1ccccc1CN1CCCC2(CCNCC2)C1` the AC50 (Cytochrome P450 2D6) was 20 µM (inconclusive).

In the case of `C[C@@]1(C(=O)O)NCCc2cc(O)c(O)cc21`, the AC50 (Cytochrome P450 3A4) is reported as 31.6 µM (inconclusive).

With `Cc1ccc(C(=O)NC(=S)NNC(=O)c2ccc([N+](=O)[O-])cc2)cc1` the EC50 [4] was 4.2 µM (active).

With `Cc1ccc(C(=O)NC(=S)Nc2ccc(CN3CCCCC3)cc2)c(C)c1` the EC50 [1] was 0.98 µM (active) and the EC50 [2] was 15.8 µM (active).

For `CC(C)(CNc1ccc(S(=O)(=O)C(F)(F)F)cc1[N+](=O)[O-])N1CCOCC1`, the EC50 [1] was 2.42 µM (active) and the EC50 [2] was 4.83 µM (active).

In the case of `O=[As](O)(O)c1ccc2nc3cc([As](=O)(O)O)ccc3nc2c1`, the AC50 (Cytochrome P450 2C19) is reported as “inconclusive”.

For `Cc1ccc(SCCCn2cnc3ccccc3c2=O)cc1`, the AC50 (Cytochrome P450 2D6) was 1 µM (inconclusive).

With `FC(F)(F)c1n[nH]c(SCc2ccc(Cl)cc2)n1` the AC50 (Cytochrome P450 2C19; read-out: AC50) was 2.51 µM (inconclusive).

For `Cc1ccc(S(=O)(=O)NCCn2cnc([N+](=O)[O-])n2)cc1`, the EC50 [1] was 0.116 µM (active) and the EC50 [2] was > 60 µM (not active).
